Bounds are passed on as bounds.

Data set [1] addresses T1, Nuclear receptor subfamily 1 group I member 2 (Homo sapiens, UniProt O75469).
T1 sequence (O75469 whole entry): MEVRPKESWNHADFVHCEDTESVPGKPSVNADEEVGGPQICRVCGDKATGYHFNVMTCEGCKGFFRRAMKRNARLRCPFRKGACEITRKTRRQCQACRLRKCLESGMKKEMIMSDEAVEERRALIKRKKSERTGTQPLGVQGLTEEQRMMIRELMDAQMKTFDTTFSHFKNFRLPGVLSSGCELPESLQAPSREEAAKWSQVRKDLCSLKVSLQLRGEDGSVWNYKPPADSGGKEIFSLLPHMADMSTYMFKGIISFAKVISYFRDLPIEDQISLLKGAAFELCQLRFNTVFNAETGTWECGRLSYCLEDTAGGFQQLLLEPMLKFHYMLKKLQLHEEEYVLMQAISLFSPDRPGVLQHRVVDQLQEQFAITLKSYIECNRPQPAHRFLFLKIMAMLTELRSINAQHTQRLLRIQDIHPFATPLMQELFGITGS
The data set can be described thus: Activation of PXR (unknown origin). Format: toxicity.

Data set [2] is described as follows: MRT in dog at 3 mg/kg, po or 1 mg/kg, iv measured upto 24 hrs by LC-MS analysis. Format: ADME, organism-based, Canis lupus familiaris. As to conditions: in vivo.
A short description of data set [3]: Oral bioavailability in rat at 3 mg/kg measured upto 24 hrs by LC-MS analysis. Format: ADME, organism-based. As to conditions: in vivo.
The subject of data set [4] is SARS-CoV-2. As to the kind of experiment: Antiviral activity against ancestral SARS-CoV-2 WA1/2020 infected in human A549-hACE2-TMPRSS2 cells assessed as inhibition of virus induced cytopathic effect incubated for 72 hrs by celltiter glo assay. As to conditions: Severe acute respiratory syndrome coronavirus 2, WA1/2020, A549-hACE2-TMPRSS2, 72 h. The class given is functional, organism-based. Background: Damage to the host cells serves as the signal in cytopathic effect assays.

The test system of data set [5] is SARS-CoV-2. The data set can be described thus: Antiviral activity against SARS-CoV-2 Delta B.1.617 AY-2 infected in human A549-hACE2-TMPRSS2 cells assessed as inhibition of virus induced cytopathic effect incubated for 72 hrs by celltiter glo assay. The class given is functional, organism-based. As to conditions: Severe acute respiratory syndrome coronavirus 2, Delta B.1.617 AY-2, A549-hACE2-TMPRSS2, 72 h.

The nature of data set [6]: Volume of distribution at steady state in rat by measuring compound and its epimer at 3 mg/kg, po or 1 mg/kg, iv measured upto 24 hrs by LC-MS analysis. The class given is ADME, organism-based. As to conditions: in vivo.
The target in data set [7] is T2, Cytochrome P450 2B6 (Homo sapiens, UniProt P20813).
T2 sequence (P20813 whole entry): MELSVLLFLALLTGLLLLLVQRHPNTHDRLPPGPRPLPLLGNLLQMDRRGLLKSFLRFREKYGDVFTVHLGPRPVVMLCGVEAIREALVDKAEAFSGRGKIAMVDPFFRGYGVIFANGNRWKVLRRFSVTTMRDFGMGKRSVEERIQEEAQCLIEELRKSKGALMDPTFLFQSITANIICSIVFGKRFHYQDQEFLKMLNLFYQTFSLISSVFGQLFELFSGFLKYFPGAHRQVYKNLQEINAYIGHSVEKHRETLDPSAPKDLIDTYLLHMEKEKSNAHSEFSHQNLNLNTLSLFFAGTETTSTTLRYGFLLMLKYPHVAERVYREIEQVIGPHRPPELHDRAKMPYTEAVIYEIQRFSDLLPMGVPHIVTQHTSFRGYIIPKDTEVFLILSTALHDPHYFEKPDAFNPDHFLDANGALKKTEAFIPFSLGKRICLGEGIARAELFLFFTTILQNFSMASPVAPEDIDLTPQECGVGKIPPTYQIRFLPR
The data set can be described thus: Induction of CYP2B6 in human hepatocytes assessed as increase in CYP2B6 mRNA level at 20 uM measured after 48 hrs by PCR analysis relative to control. The class given is ADME, cell-based, Hepatocyte.

The target in data set [8] is Cytochrome P450 3A4 (Homo sapiens, UniProt P08684). The data set can be described thus: Induction of CYP3A4 in human hepatocytes assessed as increase in CYP3A4 mRNA level at 20 uM measured after 48 hrs by PCR analysis relative to control. The class given is ADME, cell-based, Hepatocyte.
Cytochrome P450 3A4, sequence (P08684 whole entry): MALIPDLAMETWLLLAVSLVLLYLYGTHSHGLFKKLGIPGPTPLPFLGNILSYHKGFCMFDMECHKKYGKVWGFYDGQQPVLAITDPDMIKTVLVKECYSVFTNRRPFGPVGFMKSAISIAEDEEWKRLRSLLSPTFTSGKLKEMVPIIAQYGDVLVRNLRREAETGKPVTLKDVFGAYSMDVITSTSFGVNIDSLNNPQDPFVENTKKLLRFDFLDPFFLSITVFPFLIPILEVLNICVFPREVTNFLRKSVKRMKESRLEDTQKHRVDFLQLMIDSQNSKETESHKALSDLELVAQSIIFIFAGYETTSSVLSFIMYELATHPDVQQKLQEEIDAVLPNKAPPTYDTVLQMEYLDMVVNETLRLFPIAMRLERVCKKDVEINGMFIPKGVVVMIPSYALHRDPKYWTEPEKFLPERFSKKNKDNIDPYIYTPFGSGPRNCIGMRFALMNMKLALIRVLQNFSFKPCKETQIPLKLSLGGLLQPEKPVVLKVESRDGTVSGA
Data set [9] concerns the target T3, CYP3A (Homo sapiens, UniProt P08684+P20815+P24462+Q9HB55). As to the kind of experiment: Time dependent inhibition of CYP3A in human liver microsomes assessed as inhibition constant. Format: ADME, Microsome.
Data set [10] is described as follows: Lipophilicity, logD of compound at pH 8 by HPLC analysis. Format: physicochemical. As to conditions: buffer.
Data set [11] can be described thus: Apparent permeability in MDCK cells. The class given is ADME, cell-based, Canis lupus familiaris. As to conditions: dog.
The nature of data set [12]: Oral bioavailability in human. As to conditions: in vivo. Format: ADME, organism-based.
For data set [13], the target named is Cytochrome P450 2C19 (Homo sapiens, UniProt P33261). The data set can be described thus: Reversible inhibition of CYP2C19 in human liver microsomes using S-mephenytoin as substrate incubated for 5 mins in presence of NADPH-generating system by LC-MS/MS analysis. Format: ADME, Microsome.
Cytochrome P450 2C19, sequence (P33261 whole entry): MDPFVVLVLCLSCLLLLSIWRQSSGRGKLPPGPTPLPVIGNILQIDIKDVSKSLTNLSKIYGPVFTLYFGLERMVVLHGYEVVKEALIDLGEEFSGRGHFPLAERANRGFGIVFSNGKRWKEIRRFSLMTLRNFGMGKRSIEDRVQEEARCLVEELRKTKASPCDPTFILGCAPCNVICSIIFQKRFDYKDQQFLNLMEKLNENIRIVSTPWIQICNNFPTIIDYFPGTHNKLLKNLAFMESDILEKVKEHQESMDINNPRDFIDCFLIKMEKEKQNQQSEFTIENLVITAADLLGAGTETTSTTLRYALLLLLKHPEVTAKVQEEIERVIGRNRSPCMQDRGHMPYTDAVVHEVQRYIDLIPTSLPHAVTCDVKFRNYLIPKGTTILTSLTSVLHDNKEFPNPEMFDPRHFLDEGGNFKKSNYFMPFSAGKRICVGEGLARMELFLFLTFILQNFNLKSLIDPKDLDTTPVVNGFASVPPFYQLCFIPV
Data set [14] concerns the target Cytochrome P450 2D6 (Homo sapiens, UniProt P10635). As to the kind of experiment: Reversible inhibition of CYP2D6 in human liver microsomes using dextromethorphan as substrate incubated for 5 mins in presence of NADPH-generating system by LC-MS/MS analysis. Format: ADME, Microsome. (In general: Liver microsomes are vesicles of endoplasmic reticulum, rich in cytochrome P450 enzymes.)

The target of data set [15] is T3, CYP3A. As to the kind of experiment: Reversible inhibition of CYP3A in human liver microsomes incubated for 5 mins in presence of NADPH-generating system by LC-MS/MS analysis. Format: ADME, Microsome.
Data set [16] in a line: Plasma stability in rat assessed as epimerization at 1 uM measured upto 3 hrs by LC-MS/MS analysis. Format: ADME, cell-free.
The nature of data set [17]: Plasma stability in dog assessed as epimerization at 1 uM measured upto 3 hrs by LC-MS/MS analysis. The class given is ADME, cell-free, Canis lupus familiaris.
A short description of data set [18]: Plasma protein binding in rat assessed as free fraction at 1 uM. The class given is ADME, cell-free.
Data set [19] in a line: Plasma protein binding in human assessed as unbound fraction at 1 uM. Format: ADME, cell-free.
Data set [20] deals with SARS-CoV-2. As to the kind of experiment: Antiviral activity against SARS CoV-2 USA-WA1/2020 infected in B6.Cg-Tg(K18-ACE2)2Prlmn/J mouse assessed as log reduction in plaque-forming units in lung at […], po bid measured on day 4 post inoculation. The class given is functional, Severe acute respiratory syndrome coronavirus 2. As to conditions: time 4 day.
The test system of data set [21] is SARS-CoV-2. The data set can be described thus: Antiviral activity against SARS CoV-2 USA-WA1/2020 infected in po dosed B6.Cg-Tg(K18-ACE2)2Prlmn/J mouse assessed as reduction in viral load in lung administered orally twice daily and measured on day 4 post inoculation. Format: functional, organism-based. As to conditions: Severe acute respiratory syndrome coronavirus 2, dose 100-500 mg/kg, time 4.0 day.

Data set [22] deals with SARS-CoV-2. The data set can be described thus: Antiviral activity against SARS CoV-2 USA-WA1/2020 infected in B6.Cg-Tg(K18-ACE2)2Prlmn/J mouse assessed as fold reduction in viral load in lung at 500 mg/kg, po bid measured on day 4 post inoculation. As to conditions: time 4 day. Format: functional, Severe acute respiratory syndrome coronavirus 2.
Data set [23] concerns SARS-CoV-2. As to the kind of experiment: Antiviral activity against SARS CoV-2 USA-WA1/2020 infected in po dosed B6.Cg-Tg(K18-ACE2)2Prlmn/J mouse assessed as reduction in viral RNA level administered orally twice daily and measured on day 4 post inoculation by RT-PCR analysis. The class given is functional, organism-based. As to conditions: Severe acute respiratory syndrome coronavirus 2, dose 100-500 mg/kg, time 4.0 day.

Cytochrome P450 2D6, sequence (P10635 whole entry): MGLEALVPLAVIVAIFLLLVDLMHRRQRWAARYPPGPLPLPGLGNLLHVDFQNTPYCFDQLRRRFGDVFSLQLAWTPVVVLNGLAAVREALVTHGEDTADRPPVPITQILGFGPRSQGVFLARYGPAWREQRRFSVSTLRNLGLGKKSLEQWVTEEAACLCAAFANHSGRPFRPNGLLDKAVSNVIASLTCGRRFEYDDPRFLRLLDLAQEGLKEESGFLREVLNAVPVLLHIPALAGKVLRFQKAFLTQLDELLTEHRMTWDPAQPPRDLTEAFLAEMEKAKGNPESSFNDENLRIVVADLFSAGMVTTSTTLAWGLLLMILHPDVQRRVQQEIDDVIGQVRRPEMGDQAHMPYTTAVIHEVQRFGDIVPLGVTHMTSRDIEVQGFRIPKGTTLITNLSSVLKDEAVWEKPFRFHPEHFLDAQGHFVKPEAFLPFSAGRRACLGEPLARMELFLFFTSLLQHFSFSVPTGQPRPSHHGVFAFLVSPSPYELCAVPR

One may read the EC50 as the concentration giving half of the maximal effect. Lower therefore signals greater potency. In general, MRT refers to a mean duration of stay, worked out from the concentration-time curve. By bioavailability is commonly meant the share of a dose that reaches the circulation, judged against a reference dose that is usually intravenous. As a reminder, the IC50 is the concentration at which inhibition is half-maximal. Broadly, the logD is the decadic logarithm of the distribution of all forms, ionised or not, between an organic phase and buffer at a given pH. A high value points to a more lipophilic compound. As a reminder, the Papp is the rate of passage across a membrane or cell layer, normalised by area and donor concentration. By fraction unbound is commonly meant free concentration divided by total concentration. In the case of `CNC(=O)C(=O)[C@H](CCC(C)(F)F)NC(=O)[C@@H]1[C@H]2CCC[C@H]2CN1C(=O)[C@@H](NC(=O)OC)C(C)(C)C`, in data set [1], the EC50 is > 30 µM. This compound also had an MRT in data set [2] of 2.5 h. The bioavailability was 65% in data set [3] and 67% in [12]. Also, the IC50 in [4] was 0.444 µM; in data set [5], 0.351 µM; in [13], > 200 µM; in [14], > 200 µM. Moreover, the Vdss in [6] came out at 2.8 L/kg. Moreover, the Activity in data set [7] was 7%; in [8], 22%; in data set [21] it was “Dose-Dependent Effect”; in data set [23] it was “Dose-Dependent Effect”. The Ki in data set [9] was determined as 110 µM. This compound returned a logD in [10] of 2.49. In addition, in data set [11], the Papp amounted to 5.7 ×10⁻⁶ cm/s. Besides, in data set [15], the IC50 at 5 min stood at 118 µM. For the same compound, the Stability entry in data set [16] and in [17] was “Unstable” in each case. Moreover, the fraction unbound at 1 µM in [18] is 0.1; in data set [19], 0.27. Besides, in data set [20], the “log(activity)” value was determined as 1.7. In [22], the “fold change (FC)” value turned out to be 5.

These data come from ChEMBL document CHEMBL5528064, “Invention of MK-7845, a SARS-CoV-2 3CL Protease Inhibitor Employing a Novel Difluorinated Glutamine Mimic” (J Med Chem, 2024).
